“Also recorded” adds a separate entry of the source. Blank lines part the entries; values can stand above or below the molecule they belong to.
Assays:
[1] = Stability of PEA-prodrug in Sprague-Dawley rat plasma and acidified rat plasma (90 minutes, ice or RT); format: in vitro ADME; settings: 1 μg/mL
Procedure: The stability of the PEA-prodrug I-9 was assessed in Sprague-Dawley rat plasma containing sodium heparin as the anticoagulant, and in acidified rat plasma containing citric acid and formic acid. The acidified plasma was prepared by collecting Sprague-Dawley rat […] over sodium heparin and adding 100 μL of 0.5 M citric acid per mL of blood. The blood was centrifuged to generate plasma, and then 100 μL of 10% formic acid was added per mL of plasma.
PEA-prodrug was added to each matrix to a final concentration of 1 μg/mL. Triplicate aliquots (50 μL) were immediately collected and added to 150 μL of acetonitrile containing internal standard. The remaining plasma aliquots were split equally. One aliquot was allowed to stand at room temperature while the second was placed on ice. After ninety minutes, triplicate aliquots of each sample were collected and added to acetonitrile. The samples were centrifuged at 13000 rpm for ten minutes, and the resulting supernatant was analyzed using the developed LC-MS/MS method. The peak area response ratios (PARR) of the analyte and internal standard from the incubated samples were then compared to the initial sample to determine the percent PEA prodrug remaining.

[2] = Simulated gastric fluid (SGF) stability, with and without pepsin; format: in vitro ADME; settings: pH 1.2, 2 μM
Procedure: Studies were carried out in simulated gastric fluid (SGF). SGF was prepared by dissolving 2.0 g of NaCl and 3.2 g of purified pepsin (derived from porcine stomach mucosa) in 7 mL of 10 N HCl and sufficient water to make 1000 mL. The pH was adjusted to pH 1.2. Control experiments were also run without the addition of pepsin to the matrix. The test article was added into the SGF at 37° C. at a final concentration of 2 μM, and incubated in a shaking water bath at 37° C. Individual tubes were dosed for each time point (0, 15, 30, 60, and 120 minutes). At the appropriate time, 500 μL of ice-cold acetonitrile containing 0.1% formic acid and internal standard was added to a single tube. The starting time of each tube was staggered so that all timepoints finished simultaneously. The samples were then mixed and centrifuged. Calibration standards were prepared in matched matrix. […] Analytical conditions are outlined in Appendix 4-1.

[3] = Microsome/S9 fraction control (reaction mixture without microsomal proteins); format: in vitro ADME; settings: for Concentration of analyte I-9: dosed I-9 2 μM
Procedure: As a control for the liver microsome and intestinal S9 fraction studies, additional experiments were run in reaction mixture, with the exclusion of microsomal proteins. The reaction mixture was prepared as described below. […] Individual tubes were dosed for each time point (0, 10, 20, 30, and 60 minutes). At the appropriate time, 500 μL of ice-cold acetonitrile containing 0.1% formic acid and internal standard was added to a single tube. The starting time of each tube was staggered so that all timepoints finished simultaneously. […] Calibration standards were prepared in matched matrix. […] Analytical conditions are outlined in Appendix 4-1.

[4] = PEA levels in New Zealand White rabbit plasma samples after oral administration; format: in vivo; settings: individual rabbits; Group 3, 32 mg/kg/day; total PEA, ~5 h after morning dosing; listed as PEA-prodrug
Description: The present Example describes PEA levels observed in rabbit plasma samples after oral administration of compound(s) provided herein. Blood samples were taken approximately five hours after the morning dosing.
Plasma samples from the current study were not treated to prolong the post-collection stability of the prodrug. Instead, all samples were allowed to stand, thawed and untreated, at room temperature for four hours prior to extraction and analysis. This strategy allowed for any remaining prodrug in the sample to convert to PEA. All reported concentrations are total PEA in the sample.
Seventy-nine New Zealand White rabbit plasma samples were analyzed with a previously developed LC-MS/MS method for the detection of palmitoylethanolamide (PEA). A total of 79 plasma samples were received for analysis. All samples were received frozen in good condition. Samples were stored at −80° C. until analysis.
An LC-MS/MS method for the determination of PEA in plasma was used to quantify samples in this study. See, e.g., Example 3. Study samples were extracted using the methods described in Examples 3-5.

[5] = Simulated gastric fluid (SGF) stability, with and without pepsin; format: in vitro ADME; settings: for Concentration of analyte I-9: dosed I-9 2 μM
[6] = PEA levels in New Zealand White rabbit plasma samples after oral administration; format: in vivo; settings: individual rabbits, predose
[7] = system: Sprague Dawley rats, carrageenan-induced thermal hyperalgesia; experiment: Carrageenan-induced inflammatory model, thermal hyperalgesia testing; format: in vivo, Sprague Dawley rat
Procedure: Sixty male Sprague Dawley rats were used in this study. Baseline thermal hyperalgesia thresholds were determined on day -1; animals were divided into 6 groups based on baseline thermal hyperalgesia thresholds. On day 0, animals received an oral dose of vehicle or I-16. Approximately 30 minutes after dosing the animals received an intra-plantar injection of 2% carrageenan solution. The animals were assessed for thermal hyperalgesia approximately 4 and approximately 24 hours after carrageenan injection.
Thermal hyperalgesia was assessed at baseline (prior to dosing with either vehicle or I-16), 4 hours, and 24 hours post-carrageenan injection.
Mean±SEM ipsilateral paw withdrawal latencies following carrageenan injection in vehicle and I-16 treated animals during the pharmacological assessment period (day 0).

- % Remaining ([1]; acidified rat plasma (citric and formic acid), RT): 96.0%
- % Remaining ([1]; acidified rat plasma (citric and formic acid), ice): 107%
- % Remaining ([1]; rat plasma (sodium heparin), RT): 0.203%
- % Remaining ([1]; rat plasma (sodium heparin), ice): 73.4%
- % Remaining of Initial (n = 1) ([2]; SGF w/o pepsin, 30 min): 84%
- % Remaining of Initial (n = 1) ([2]; SGF w/o pepsin, 120 min): 71%
- % Remaining of Initial (n = 1) ([2]; SGF w/pepsin, 0 min): 100%
- % Remaining of Initial (n = 1) ([2]; SGF w/pepsin, 15 min): 95%
- % Remaining of Initial (n = 1) ([2]; SGF w/pepsin, 60 min): 92%
- half-life at 2 μM ([2]; simulated gastric fluid without pepsin, SGF w/o pepsin): > 2 h
- Concentration of analyte I-9 ([3]; 0 min): 2240 nM
- Concentration of analyte I-9 ([3]; 10 min): 1470 nM
- Concentration of analyte I-9 ([3]; 20 min): 1720 nM
- Concentration of analyte I-9 ([3]; 30 min): 1500 nM
- Concentration of analyte I-9 ([3]; 60 min): 1380 nM
- half-life at 2 μM ([3]; microsome/S9 reaction mixture without microsomal proteins, no microsomal proteins, pH 7.4, 2 μM): > 1 h
- % Remaining of Initial (n = 1) ([3]; no microsomal proteins, pH 7.4, 2 μM, 0 min): 100%
- % Remaining of Initial (n = 1) ([3]; no microsomal proteins, pH 7.4, 2 μM, 10 min): 66%
- % Remaining of Initial (n = 1) ([3]; no microsomal proteins, pH 7.4, 2 μM, 20 min): 77%
- % Remaining of Initial (n = 1) ([3]; no microsomal proteins, pH 7.4, 2 μM, 30 min): 67%
- % Remaining of Initial (n = 1) ([3]; no microsomal proteins, pH 7.4, 2 μM, 60 min): 62%
- % Remaining of Initial (n = 1) ([5]; SGF w/o pepsin, pH 1.2, 2 μM, 0 min): 100%
- % Remaining of Initial (n = 1) ([5]; SGF w/o pepsin, pH 1.2, 2 μM, 15 min): 93%
- % Remaining of Initial (n = 1) ([5]; SGF w/o pepsin, pH 1.2, 2 μM, 60 min): 72%
- % Remaining of Initial (n = 1) ([5]; SGF w/pepsin, pH 1.2, 2 μM, 30 min): 80%
- % Remaining of Initial (n = 1) ([5]; SGF w/pepsin, pH 1.2, 2 μM, 120 min): 86%
- Concentration of analyte I-9 ([5]; Matrix 'Human', 0 min): 1520 nM
- Concentration of analyte I-9 ([5]; Matrix 'Human', head 10 min): 1450 nM
- Concentration of analyte I-9 ([5]; Matrix 'Human', head 20 min): 1210 nM
- Concentration of analyte I-9 ([5]; Matrix 'Human', head 30 min): 1400 nM
- Concentration of analyte I-9 ([5]; Matrix 'Human', head 60 min): 1310 nM
- Concentration of analyte I-9 ([5]; Matrix 'Rat', 0 min): 2070 nM
- Concentration of analyte I-9 ([5]; Matrix 'Rat', head 10 min): 1930 nM
- Concentration of analyte I-9 ([5]; Matrix 'Rat', head 20 min): 1740 nM
- Concentration of analyte I-9 ([5]; Matrix 'Rat', head 30 min): 1490 nM
- Concentration of analyte I-9 ([5]; Matrix 'Rat', head 60 min): 1480 nM
- half-life at 2 μM ([5]; pig, simulated gastric fluid with pepsin, SGF w/pepsin, pH 1.2, 2 μM): > 2 h
SMILES: CCCCCCCCCCCCCCCC(=O)NCCOC(=O)CCC(=O)OCC(O)CO (stereo not shown) [Compound I-9]
- PEA concentration in plasma, Day 7 [4]: BLOQ (below the limit of quantitation (2.5 ng/mL))
- PEA concentration in plasma, Day −3 ([6]; Group 3, 32 mg/kg/day): BLOQ (below the limit of quantitation (2.5 ng/mL))
- PEA concentration in plasma, Day −5 ([6]; Group 3, 32 mg/kg/day): BLOQ (below the limit of quantitation (2.5 ng/mL))
- PEA concentration in plasma, Day −3 ([6]; Group 4, 160 mg/kg/day): BLOQ (below the limit of quantitation (2.5 ng/mL))
- PEA concentration in plasma, Day −5 ([6]; Group 4, 160 mg/kg/day): BLOQ (below the limit of quantitation (2.5 ng/mL))

SMILES: CCCCCCCCCCCCCCCC(=O)NCCOC(=O)CCC(=O)OC(COC(=O)CCC)COC(=O)CCC [Compound I-16]
- effect on thermal hyperalgesia induced by carrageenan ([7]; I-16 10.25 mg/kg PO (5 mg/kg equivalents of PEA), any time point (4 and 24 hours)): did not significantly reduce; also recorded: no significant effect
- effect on thermal hyperalgesia induced by carrageenan ([7]; I-16 20.50 mg/kg PO, 4-hour time point, 20.5 mg/kg): significantly reduced thermal hyperalgesia; also recorded: significantly reducing thermal hyperalgesia
- effect on thermal hyperalgesia induced by carrageenan ([7]; I-16 20.50 mg/kg PO, 24-hour time point): did not significantly reduce thermal hyperalgesia
- overall effect on thermal hyperalgesia ([7]; I-16 10.25 and 20.50 mg/kg PO): dose- and time-dependent reduction of thermal hyperalgesia
